According to ChEMBL document CHEMBL1130773, “Identification of a non peptidic RANTES antagonist” (Bioorg Med Chem Lett, 1998):
Activity calls are given as the source filed them. The rule behind the calls is not given here.

Tested on: not listed separately
Assay: Inhibition of [125I]RANTES binding to THP-1 cell membranes rich in C-C chemokine receptor types 1
Design: species or system Homo sapiens
Details: not given

Structure (SMILES) | IC50 [µM]
N#Cc1ccc2c(c1)N(CCCN1CCC3(CC1)C(=O)NCN3c1ccccc1)c1ccccc1S2 | 6
O=C1NCN(c2ccccc2)C12CCN(CCCN1c3ccccc3Sc3ccc(Cl)cc31)CC2 | 7
CC(=O)c1ccc2c(c1)N(CCCN1CCC3(CC1)C(=O)NCN3c1ccccc1)c1ccccc1S2 | 3
CN(C)S(=O)(=O)c1ccc2c(c1)N(CCCN1CCC3(CC1)C(=O)NCN3c1ccccc1)c1ccccc1S2 | 3
CN(C)S(=O)(=O)c1ccc2c(c1)N(CCCCN1CCC3(CC1)C(=O)NCN3c1ccccc1)c1ccccc1S2 | 10
COC(=O)c1ccc2c(c1)N(CCCN1CCC3(CC1)C(=O)NCN3c1ccccc1)c1ccccc1S2 | 4
CN(C)S(=O)(=O)c1ccc2c(c1)N(CCCN1CCC(C3CCCCC3)CC1)c1ccccc1S2 | 2
CN(C)S(=O)(=O)c1ccc2c(c1)N(CCCN1CCC(c3ccccc3)CC1)c1ccccc1S2 | 4.5
O=C1NCN(c2ccccc2)C12CCN(CCCN1c3ccccc3Sc3ccccc31)CC2 | 12
CN(C)C(=O)c1ccc2c(c1)N(CCCN1CCC3(CC1)C(=O)NCN3c1ccccc1)c1ccccc1S2 | 5
CN(C)S(=O)(=O)c1ccc2c(c1)N(CCCN1CCC(Cc3ccccc3)CC1)c1ccccc1S2 | 7
CN(CCCc1ccccc1)CCCN1c2ccccc2Sc2ccc(S(=O)(=O)N(C)C)cc21 | 4

Tested on: THP-1
Assay: Compound was tested in vitro for inhibition of [125I]RANTES binding to THP-1 cell membranes rich in C-C chemokine receptor type 1
Details: dose or concentration not given here

Structure (SMILES) | inhibition [%]
CN(C)S(=O)(=O)c1ccc2c(c1)N(CCCN1CCCCC1)c1ccccc1S2 | 38
CN(C)S(=O)(=O)c1ccc2c(c1)N(CCN1CCC3(CC1)C(=O)NCN3c1ccccc1)c1ccccc1S2 | < 20

Biological target: C-C chemokine receptor type 2 (Homo sapiens) (UniProt P41597)
Assay: Tested for inhibition of [125I]-MCP-1 receptor binding to THP-1 cell membranes at concentrations up to 30 uM; NI means no inhibition
Details: not given

Chain of C-C chemokine receptor type 2 (Homo sapiens) (P41597 whole entry, looked up): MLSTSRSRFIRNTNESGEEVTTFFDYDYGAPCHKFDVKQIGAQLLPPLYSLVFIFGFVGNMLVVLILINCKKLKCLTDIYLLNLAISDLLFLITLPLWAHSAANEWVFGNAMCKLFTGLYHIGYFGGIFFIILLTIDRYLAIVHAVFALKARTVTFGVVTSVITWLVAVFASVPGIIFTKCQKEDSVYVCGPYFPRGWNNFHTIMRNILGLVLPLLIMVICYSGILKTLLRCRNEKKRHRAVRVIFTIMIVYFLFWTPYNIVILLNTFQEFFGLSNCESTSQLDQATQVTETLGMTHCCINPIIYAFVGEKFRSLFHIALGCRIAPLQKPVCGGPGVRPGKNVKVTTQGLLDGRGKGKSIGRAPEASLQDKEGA

Structure (SMILES) | inhibition
CN(C)S(=O)(=O)c1ccc2c(c1)N(CCCN1CCC3(CC1)C(=O)NCN3c1ccccc1)c1ccccc1S2 | inactive
